According to patent US7799821B2, “Therapeutic compounds” (Allergan, Inc., priority 2004, dated 2010):
Where two headings read alike, the source gives them in different places.

Experiments:
hEP2/Gqs5 = target: T1, hEP2/Gqs5 (Homo sapiens, UniProt P43116); assay: FLIPR calcium signal, hEP2; assay type: cell-based
T1 construct: expressed in transfected cells; host or cells: HEK-293(EBNA)
Description: (§1) HEK-293(EBNA) cells, stably expressing one type or subtype of recombinant human prostaglandin receptors (prostaglandin receptors expressed: hDP/Gqs5; hEP1; hEP2/Gqs5; hEP3A/Gqi5; hEP4/Gqs5; hFP; hIP; hTP), were cultured in 100 mm culture dishes in high-glucose DMEM medium containing 10% fetal bovine serum, 2 mM 1-glutamine, 250 μg/ml geneticin (G418) and 200 μg/ml hygromycin B as selection markers, and 100 units/ml penicillin G, 100 μg/ml streptomycin and 0.25 μg/ml amphotericin B. • (b) Calcium Signal Studies on the FLIPR™
(§2) Cells were seeded at a density of 5×10^4 cells per well in Biocoat® Poly-D-lysine-coated black-wall, clear-bottom 96-well plates (Becton-Dickinson) and allowed to attach overnight in an incubator at 37° C. Cells were then washed two times with HBSS-HEPES buffer (Hanks Balanced Salt Solution without bicarbonate and phenol red, 20 mM HEPES, pH 7.4) using a Denley Cellwash plate washer (Labsystems). After 45 minutes of dye-loading in the dark, using the calcium-sensitive dye Fluo-4 AM at a final concentration of 2 μM, plates were washed four times with HBSS-HEPES buffer to remove excess dye leaving 100 μl in each well. Plates were re-equilibrated to 37° C. for a few minutes.
(§3) Cells were excited with an Argon laser at 488 nm, and emission was measured through a 510-570 nm bandwidth emission filter (FLIPR™, Molecular Devices, Sunnyvale, Calif.). Drug solution was added in a 50 μl volume to each well to give the desired final concentration. The peak increase in fluorescence intensity was recorded for each well. On each plate, four wells each served as negative (HBSS-HEPES buffer) and positive controls (standard agonists: BW245C (hDP); PGE2 (hEP1; hEP2/Gqs5; hEP3A/Gqi5; hEP4/Gqs5); PGF2α (hFP); carbacyclin (hIP); U-46619 (hTP), depending on receptor). The peak fluorescence change in each drug-containing well was then expressed relative to the controls.
(§4) Compounds were tested in a high-throughput (HTS) or concentration-response (CoRe) format. In the HTS format, forty-four compounds per plate were examined in duplicates at a concentration of 10^−5 M. To generate concentration-response curves, four compounds per plate were tested in duplicates in a concentration range between 10^−5 and 10^−11 M. The duplicate values were averaged. In either, HTS or CoRe format each compound was tested on at least 3 separate plates using cells from different passages to give an n≧3.

hDP/Gqs5 = target: T2, hDP/Gqs5 (Homo sapiens, UniProt Q13258); assay: FLIPR calcium signal, hDP; assay type: cell-based
T2 construct: expressed in transfected cells; host or cells: HEK-293(EBNA)
T2 sequence (Q13258 1-359): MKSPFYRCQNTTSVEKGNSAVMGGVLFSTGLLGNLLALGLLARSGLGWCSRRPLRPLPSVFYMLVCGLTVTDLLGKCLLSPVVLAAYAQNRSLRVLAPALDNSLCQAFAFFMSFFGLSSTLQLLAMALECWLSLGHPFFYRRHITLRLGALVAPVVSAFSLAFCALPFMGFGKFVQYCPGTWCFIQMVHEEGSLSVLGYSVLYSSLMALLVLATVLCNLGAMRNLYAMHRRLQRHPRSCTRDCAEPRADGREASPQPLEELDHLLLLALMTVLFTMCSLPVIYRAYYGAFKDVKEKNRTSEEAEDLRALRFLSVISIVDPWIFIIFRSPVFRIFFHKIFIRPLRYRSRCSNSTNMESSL
Description: as §1, §2, §3, §4

hEP4/Gqs5 = target: T3, hEP4/Gqs5 (Homo sapiens, UniProt P35408); assay: FLIPR calcium signal, hEP4; assay type: cell-based; conditions: unit inferred; read-out: EP4 data flipr EC50
T3 construct: expressed in transfected cells; host or cells: HEK-293(EBNA)
T3 sequence (P35408 whole entry): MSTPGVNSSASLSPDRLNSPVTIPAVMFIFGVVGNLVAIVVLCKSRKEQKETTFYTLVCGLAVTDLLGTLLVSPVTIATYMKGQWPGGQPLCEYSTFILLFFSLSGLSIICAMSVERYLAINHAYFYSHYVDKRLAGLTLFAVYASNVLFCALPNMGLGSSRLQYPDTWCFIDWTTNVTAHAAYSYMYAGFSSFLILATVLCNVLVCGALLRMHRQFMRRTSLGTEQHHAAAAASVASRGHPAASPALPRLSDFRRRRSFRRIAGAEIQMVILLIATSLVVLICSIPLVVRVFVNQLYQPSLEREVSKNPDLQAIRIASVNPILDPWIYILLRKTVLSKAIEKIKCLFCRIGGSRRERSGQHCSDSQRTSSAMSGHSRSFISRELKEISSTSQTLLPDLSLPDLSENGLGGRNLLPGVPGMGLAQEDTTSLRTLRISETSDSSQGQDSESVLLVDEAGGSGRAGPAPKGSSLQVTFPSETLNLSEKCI
Description: as §1, §2, §3, §4

human EP2 receptors = target: T4, human EP2 receptors (Homo sapiens, UniProt P43116); assay: Competition radioligand binding ([3H]PGE2), EP2; conditions: unit inferred; read-out: EP2 data Ki
T4 construct: expressed in transfected cells; host or cells: HEK 293
T4 sequence (P43116 whole entry): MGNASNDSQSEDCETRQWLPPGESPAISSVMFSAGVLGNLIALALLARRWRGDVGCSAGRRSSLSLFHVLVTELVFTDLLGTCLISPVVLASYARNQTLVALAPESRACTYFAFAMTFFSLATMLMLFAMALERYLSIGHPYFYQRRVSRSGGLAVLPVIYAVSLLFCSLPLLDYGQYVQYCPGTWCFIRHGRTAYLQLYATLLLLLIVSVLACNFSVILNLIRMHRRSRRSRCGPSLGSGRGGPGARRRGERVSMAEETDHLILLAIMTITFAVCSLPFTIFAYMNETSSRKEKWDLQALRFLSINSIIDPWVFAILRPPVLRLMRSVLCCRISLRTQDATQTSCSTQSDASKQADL
Description: Competition binding experiments were performed in a medium containing Hank's balanced salt solution, […], membranes (˜60 μg protein) or 2×10^5 cells from HEK 293 cells stably expressing human EP2 receptors, [^3H]PGE2 (10 nM) and various concentrations of test compounds in a total volume of 300 μl. Reaction mixtures were incubated at 23° C. for 60 min, and were filtered over Whatman GF/B filters under vacuum. Filters were washed three times with 5 ml ice-cold buffer containing 50 mM Tris/HCl (pH 7.3). Non-specific binding was estimated in the presence of excess unlabeled PGE2 (10 μM). Binding data fitted to the binding model for a single class of binding sites, using nonlinear regression analysis. IC50 values thus obtained were converted to Ki using the equation of Ki=(IC50/(1+[L]/KD) where [L] represents PGE2 concentration (10 nM) and KD the dissociation constant for [^3H]PGE2 at human EP2 receptors (40 nM).
(§5) HEK-293 cells stably expressing the human or feline FP receptor, or EP1, EP2, or EP4 receptors were washed with TME buffer, scraped from the bottom of the flasks, and homogenized for 30 sec using a Brinkman PT 10/35 polytron. TME buffer was added to achieve a final 40 ml volume in the centrifuge tubes (the composition of TME is 100 mM TRIS base, 20 mM MgCl2, […]; 10N HCl is added to achieve a pH of 7.4).
(§6) The cell homogenate was centrifuged at 19000 r.p.m. for 20 min at 4° C. using a Beckman Ti-60 rotor. The resultant pellet was resuspended in TME buffer to give a final 1 mg/ml protein concentration, as determined by Biorad assay. Radioligand binding competition assays vs. [^3H-]17 —phenyl PGF2α (5 nM) were performed in a 100 μl volume for 60 min. Binding reactions were started by adding plasma membrane fraction. The reaction was terminated by the addition of 4 ml ice-cold TRIS-HCl buffer and rapid filtration through glass fiber GF/B filters using a Brandel cell harvester. The filters were washed 3 times with ice-cold buffer and oven dried for one hour.
(§7) [^3H-] PGE2 (specific activity 180 Ci mmol) was used as the radioligand for EP receptors. [^3H] 17-phenyl PGF2α was employed for FP receptor binding studies. Binding studies employing EP1, EP2, EP4 and FP receptors were performed in duplicate in at least three separate experiments. A 200 μl assay volume was used. Incubations were for 60 min at 25° C. and were terminated by the addition of 4 ml of ice-cold 50 mM TRIS-HCl, followed by rapid filtration through Whatman GF/B filters and three additional 4 ml washes in a cell harvester (Brandel). Competition studies were performed using a final concentration of 5 nM [^3H]—PGE2, or 5 nM [^3H] 17-phenyl PGF2α and non-specific binding determined with 10^−5M of unlabeled PGE2, or 17-phenyl PGF2α, according to receptor subtype studied.

EP4 receptors = target: T5, EP4 receptors (Homo sapiens, UniProt P35408); assay: Radioligand binding ([3H]PGE2), EP4; conditions: unit inferred; read-out: EP4 data KI
T5 construct: expressed in transfected cells; host or cells: HEK-293
T5 sequence (P35408 whole entry): as the sequence (P35408 whole entry) above
Description: as §5, §6, §7

hEP3A/Gqi5 = target: T6, hEP3A/Gqi5 (Homo sapiens, UniProt P43115); assay: FLIPR calcium signal, hEP3A; assay type: cell-based; conditions: read-out: Other Receptors EC50 hEP3A
T6 construct: expressed in transfected cells; host or cells: HEK-293(EBNA)
T6 sequence (P43115 1-390): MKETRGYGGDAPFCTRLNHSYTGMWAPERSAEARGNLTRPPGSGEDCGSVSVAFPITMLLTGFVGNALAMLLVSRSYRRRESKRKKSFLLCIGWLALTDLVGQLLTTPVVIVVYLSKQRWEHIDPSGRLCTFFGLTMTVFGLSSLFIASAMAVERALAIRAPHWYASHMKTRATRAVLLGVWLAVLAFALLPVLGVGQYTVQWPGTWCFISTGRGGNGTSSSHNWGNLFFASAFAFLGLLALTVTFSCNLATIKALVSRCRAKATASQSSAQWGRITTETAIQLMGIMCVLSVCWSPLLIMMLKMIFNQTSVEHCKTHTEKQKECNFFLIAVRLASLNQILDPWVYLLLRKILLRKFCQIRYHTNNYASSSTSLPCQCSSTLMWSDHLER
Description: as §1, §2, §3, §4

hTP = target: T7, hTP (Homo sapiens, UniProt P21731); assay: FLIPR calcium signal, hTP; assay type: cell-based
T7 construct: expressed in transfected cells; host or cells: HEK-293(EBNA)
T7 sequence (P21731 1-343): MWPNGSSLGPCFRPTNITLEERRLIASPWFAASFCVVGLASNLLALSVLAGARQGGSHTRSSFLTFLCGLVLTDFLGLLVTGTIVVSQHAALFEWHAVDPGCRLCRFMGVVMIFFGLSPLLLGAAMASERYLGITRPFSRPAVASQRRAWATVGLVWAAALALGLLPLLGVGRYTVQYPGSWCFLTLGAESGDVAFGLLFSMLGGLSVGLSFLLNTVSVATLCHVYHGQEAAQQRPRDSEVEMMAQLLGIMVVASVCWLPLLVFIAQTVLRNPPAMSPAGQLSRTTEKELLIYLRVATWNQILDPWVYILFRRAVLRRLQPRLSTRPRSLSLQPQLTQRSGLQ
Description: as §1, §2, §3, §4

[1] = target: T8, HEK-EBNA cells expressing a PG EP2 receptor subtype (Homo sapiens, UniProt P43116); assay: cAMP assay, EP2; assay type: cell-based; conditions: unit inferred; read-out: EP2 data cAMP EC50
T8 construct: expressed in transfected cells; host or cells: HEK-EBNA
T8 sequence (P43116 whole entry): as the sequence (P43116 whole entry) above
Description: A 384-well drug plate was prepared to contain 6 test compounds, PGE2 and cAMP in 16 serial dilutions in triplicate, using a Biomek station. HEK-EBNA cells expressing a target PG receptor subtype (EP2 or EP4) were suspended in a stimulation buffer (HBSS, 0.1% BSA, 0.5 mM IBMX and 5 mM HEPES, pH 7.4) in a density of 10^4 cells/5 μl. The reaction was initiated by mixing 5 μL drug dilutions with 5 μl of HEK-EBNA cells in a well, carried out for 30 min at room temperature, and followed by the addition of 5 μl anti-cAMP acceptor beads in the control buffer with Tween-20 (25 mM NaCl, 0.03% Tween-20, 5 mM HEPES, pH7.4). After 30 min in the dark at room temperature, the mixtures were incubated with 15 μl biotinylated-cAMP/strepavidin donor beads in Lysis/Detection buffer (0.1% BSA, 0.3% Tween-20 and 5 mM HEPES, pH7.4) for 45 min at the room temperature. Fluorescence changes were read using a Fusion-alpha HT microplate reader.

[2] = unit inferred, other columns of the table in nM, read-out: EP2 data flipr EC50
[3] = read-out: Other Receptors EC50 hDP
[4] = read-out: FUNCTIONAL Ca2+ EC50 HTP
[5] = FLIPR Ca2+ signal, HEK-293(EBNA), read-out: FUNCTIONAL EC50 HEP2
[6] = FLIPR Ca2+ signal, HEK-293(EBNA), read-out: FUNCTIONAL EC50 HTP

T1 sequence (P43116 whole entry): as above

SMILES | EC50 (hEP2/Gqs5; [2]) | EC50 (hDP/Gqs5; [3]) | EC50 (hEP2/Gqs5; [5]) | EC50 (hTP; [6]) | further results
CCCCCC(O)c1ccc(N2C(=O)CC[C@@H]2COCc2ccc(C(=O)O)s2)cc1 (stereo partly drawn) | 8 nM | 3230 nM | – | – | EC50 (hEP4/Gqs5): > 10000 nM; Ki (human EP2 receptors): 115 nM; Ki (EP4 receptors): > 10000 nM
CCCCCCC(O)c1ccc(N2C(=O)CC[C@@H]2CCCc2ccc(C(=O)O)s2)cc1 (stereo partly drawn) [drawing 182] | 30 nM | 105 nM | – | – | EC50 (hEP4/Gqs5): > 10000 nM; EC50 (hEP3A/Gqi5): 47 nM
COC(=O)CCCCCC[C@H]1C(=O)CC[C@@H]1c1ccc(C(O)C2CCCCC2)cc1 (stereo partly drawn) | – | – | – | – | EC50 (hEP2/Gqs5; read-out: FUNCTIONAL Ca2+ EC50 HEP2): > 10000 nM; EC50 (hTP; [4]): > 10000 nM
O=C(O)CCC/C=C\C[C@@H]1[C@@H](c2ccc(C3(O)CCC3)cc2)[C@H](O)C[C@H]1Cl | – | – | 513 nM | > 10000 nM | –
COC(=O)CCC/C=C\C[C@H]1C(=O)C[C@@H](O)[C@@H]1c1ccc(C(C)(C)C)cc1 | – | – | > 10000 nM | > 10000 nM | –
CCCCCCC(O)c1ccc(N2C(=O)CC[C@@H]2COCc2ccc(C(=O)O)s2)cc1 (stereo partly drawn) [drawing 141] | 20 nM | 5760 nM | – | – | EC50 [1]: 1.5 nM; Ki (human EP2 receptors): 190 nM; Ki (EP4 receptors): > 10000 nM
O=C(O)CCCCCC[C@@H]1[C@@H](c2ccc(CC3CCCCC3)cc2)[C@H](O)C[C@H]1Cl | – | – | 3440 nM | – | EC50 (hDP/Gqs5; FLIPR Ca2+ signal, HEK-293(EBNA), read-out: FUNCTIONAL EC50 HDP): > 10000 nM
CCCC1([C@@H](O)c2cccc([C@H]3CCC(=O)[C@@H]3C/C=C\CCCC(=O)OC)c2)CCC1 | – | – | – | – | EC50 (hTP; [4]): > 10000 nM
O=C(O)CCCCCC[C@H]1C(=O)C[C@@H](O)[C@@H]1c1ccc2c(c1)CCC2O (stereo partly drawn) | – | – | – | > 10000 nM | –
